Reference: ChEMBL document CHEMBL5696442, “Discovery of type II inhibitors of TGFβ-activated kinase 1 (TAK1) and mitogen-activated protein kinase kinase kinase kinase 2 (MAP4K2)” (J Med Chem, 2015)
Active and inactive are the calls of the source. The rule behind the calls is not given here.

What was measured:
[1] = molecular target: T1, Ephrin type-B receptor 4 (Homo sapiens) (UniProt P54760); assay: Inhibition of EPHB4 (unknown origin) at 10 uM by Ambit Kinomescan binding assay
T1 sequence (whole entry): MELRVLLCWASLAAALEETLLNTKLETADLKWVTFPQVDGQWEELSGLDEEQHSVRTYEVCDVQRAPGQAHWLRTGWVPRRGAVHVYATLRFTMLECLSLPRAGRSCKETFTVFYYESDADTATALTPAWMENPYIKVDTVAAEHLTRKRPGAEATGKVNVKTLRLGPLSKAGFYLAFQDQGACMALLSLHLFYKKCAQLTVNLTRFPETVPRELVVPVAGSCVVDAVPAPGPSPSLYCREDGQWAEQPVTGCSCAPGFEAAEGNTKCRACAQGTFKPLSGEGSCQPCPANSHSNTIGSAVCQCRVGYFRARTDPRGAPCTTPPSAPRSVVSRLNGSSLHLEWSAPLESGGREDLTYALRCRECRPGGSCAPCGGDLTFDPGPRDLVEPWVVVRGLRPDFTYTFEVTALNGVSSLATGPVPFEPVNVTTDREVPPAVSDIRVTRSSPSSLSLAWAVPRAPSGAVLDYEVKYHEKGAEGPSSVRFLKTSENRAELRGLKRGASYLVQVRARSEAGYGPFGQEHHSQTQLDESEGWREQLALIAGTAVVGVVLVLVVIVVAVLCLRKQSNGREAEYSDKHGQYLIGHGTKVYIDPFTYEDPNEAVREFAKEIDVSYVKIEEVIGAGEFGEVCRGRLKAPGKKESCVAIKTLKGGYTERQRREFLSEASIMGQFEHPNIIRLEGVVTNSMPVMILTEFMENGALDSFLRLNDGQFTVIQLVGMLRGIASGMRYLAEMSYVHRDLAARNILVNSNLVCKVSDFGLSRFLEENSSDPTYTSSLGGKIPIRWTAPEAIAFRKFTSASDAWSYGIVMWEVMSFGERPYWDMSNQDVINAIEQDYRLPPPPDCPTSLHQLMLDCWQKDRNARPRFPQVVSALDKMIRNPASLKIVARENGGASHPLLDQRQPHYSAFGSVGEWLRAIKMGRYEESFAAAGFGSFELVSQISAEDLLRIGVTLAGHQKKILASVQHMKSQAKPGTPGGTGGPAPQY

[2] = molecular target: Interferon-induced, double-stranded RNA-activated protein kinase (Homo sapiens) (UniProt P19525); assay: Inhibition of PKR ACT labeling site in human Huh-7 cells at 10 uM by KiNativ Profiling analysis relative to control; format: cell-based
Chain of Interferon-induced, double-stranded RNA-activated protein kinase (Homo sapiens) (P19525 whole entry): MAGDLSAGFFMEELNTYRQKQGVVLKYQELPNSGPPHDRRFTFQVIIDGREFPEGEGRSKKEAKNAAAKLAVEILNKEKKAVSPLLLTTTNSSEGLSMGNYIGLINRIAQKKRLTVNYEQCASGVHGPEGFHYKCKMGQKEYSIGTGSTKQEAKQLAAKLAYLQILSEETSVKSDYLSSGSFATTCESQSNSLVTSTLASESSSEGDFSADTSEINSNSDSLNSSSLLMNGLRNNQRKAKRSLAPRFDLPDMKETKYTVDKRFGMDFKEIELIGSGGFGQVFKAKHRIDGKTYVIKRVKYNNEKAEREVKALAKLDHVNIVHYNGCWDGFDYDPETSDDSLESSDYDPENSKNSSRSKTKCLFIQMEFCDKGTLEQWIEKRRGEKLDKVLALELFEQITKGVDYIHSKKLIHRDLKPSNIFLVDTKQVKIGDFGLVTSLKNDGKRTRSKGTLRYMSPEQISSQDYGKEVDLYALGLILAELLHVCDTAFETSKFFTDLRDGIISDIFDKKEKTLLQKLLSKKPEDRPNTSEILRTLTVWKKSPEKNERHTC

[3] = molecular target: Serine/threonine-protein kinase 26 (Homo sapiens) (UniProt Q9P289); assay: Inhibition of MST4 K1 labeling site in human Huh-7 cells at 1 uM by KiNativ Profiling analysis relative to control; format: cell-based
Chain of Serine/threonine-protein kinase 26 (Homo sapiens) (Q9P289 2-416 limits assumed): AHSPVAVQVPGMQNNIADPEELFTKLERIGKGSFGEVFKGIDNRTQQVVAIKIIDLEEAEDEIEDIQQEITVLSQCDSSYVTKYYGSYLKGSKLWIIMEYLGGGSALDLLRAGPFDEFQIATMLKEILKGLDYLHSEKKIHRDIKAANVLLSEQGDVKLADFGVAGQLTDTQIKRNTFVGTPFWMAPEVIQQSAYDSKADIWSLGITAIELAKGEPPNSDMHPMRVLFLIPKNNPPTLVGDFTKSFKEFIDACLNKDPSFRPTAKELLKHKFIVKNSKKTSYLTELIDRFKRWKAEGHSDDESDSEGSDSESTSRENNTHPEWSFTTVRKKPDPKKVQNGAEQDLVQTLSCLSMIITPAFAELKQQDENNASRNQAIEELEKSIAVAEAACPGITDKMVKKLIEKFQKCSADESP

[4] = molecular target: T2, Serine/threonine-protein kinase Sgk3 (Homo sapiens) (UniProt Q96BR1); assay: Inhibition of SGK3 Lys1 labeling site in human A-375 cells at 0.05 uM by KiNativ Profiling analysis relative to control; format: cell-based
T2 sequence (whole entry): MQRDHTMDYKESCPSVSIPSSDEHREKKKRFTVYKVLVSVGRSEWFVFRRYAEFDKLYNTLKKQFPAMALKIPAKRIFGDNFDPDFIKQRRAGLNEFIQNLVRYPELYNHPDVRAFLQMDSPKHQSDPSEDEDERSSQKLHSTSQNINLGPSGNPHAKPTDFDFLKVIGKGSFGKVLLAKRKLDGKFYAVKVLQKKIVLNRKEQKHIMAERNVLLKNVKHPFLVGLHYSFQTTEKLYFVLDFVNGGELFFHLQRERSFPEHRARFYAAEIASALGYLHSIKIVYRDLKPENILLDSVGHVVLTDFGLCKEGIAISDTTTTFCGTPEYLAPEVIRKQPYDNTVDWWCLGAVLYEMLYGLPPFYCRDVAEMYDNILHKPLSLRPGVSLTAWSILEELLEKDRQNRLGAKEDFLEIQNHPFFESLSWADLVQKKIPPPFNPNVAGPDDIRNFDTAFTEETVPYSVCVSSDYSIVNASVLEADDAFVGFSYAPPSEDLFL

[5] = molecular target: Wee1-like protein kinase (Homo sapiens) (UniProt P30291); assay: Inhibition of Wee1 Lys2 labeling site in human Huh-7 cell lysate at 1 uM by KiNativ Profiling analysis relative to control; format: subcellular
Chain of Wee1-like protein kinase (Homo sapiens) (P30291 whole entry, looked up): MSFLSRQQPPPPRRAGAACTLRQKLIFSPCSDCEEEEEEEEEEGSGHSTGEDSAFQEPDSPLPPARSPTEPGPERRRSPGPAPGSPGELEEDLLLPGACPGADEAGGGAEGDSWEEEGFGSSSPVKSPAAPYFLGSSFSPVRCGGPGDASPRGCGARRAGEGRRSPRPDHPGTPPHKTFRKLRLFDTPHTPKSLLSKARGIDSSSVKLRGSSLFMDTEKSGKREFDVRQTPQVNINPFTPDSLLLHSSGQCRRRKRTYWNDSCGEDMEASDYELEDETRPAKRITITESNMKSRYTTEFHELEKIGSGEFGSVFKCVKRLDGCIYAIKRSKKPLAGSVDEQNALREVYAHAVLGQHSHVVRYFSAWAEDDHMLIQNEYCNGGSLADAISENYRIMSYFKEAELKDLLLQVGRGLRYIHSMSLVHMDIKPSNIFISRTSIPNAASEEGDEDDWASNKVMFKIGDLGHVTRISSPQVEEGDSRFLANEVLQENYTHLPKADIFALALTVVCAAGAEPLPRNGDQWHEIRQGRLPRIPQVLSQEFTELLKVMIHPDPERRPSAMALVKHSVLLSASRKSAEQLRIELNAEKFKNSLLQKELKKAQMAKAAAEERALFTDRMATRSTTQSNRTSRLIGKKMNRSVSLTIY

[6] = molecular target: Serine/threonine-protein kinase 16 (Homo sapiens) (UniProt O75716); assay: Inhibition of MPSK1 Lys2 labeling site in human Huh-7 cells at 1 uM by KiNativ Profiling analysis relative to control; format: cell-based
Chain of Serine/threonine-protein kinase 16 (Homo sapiens) (O75716 whole entry): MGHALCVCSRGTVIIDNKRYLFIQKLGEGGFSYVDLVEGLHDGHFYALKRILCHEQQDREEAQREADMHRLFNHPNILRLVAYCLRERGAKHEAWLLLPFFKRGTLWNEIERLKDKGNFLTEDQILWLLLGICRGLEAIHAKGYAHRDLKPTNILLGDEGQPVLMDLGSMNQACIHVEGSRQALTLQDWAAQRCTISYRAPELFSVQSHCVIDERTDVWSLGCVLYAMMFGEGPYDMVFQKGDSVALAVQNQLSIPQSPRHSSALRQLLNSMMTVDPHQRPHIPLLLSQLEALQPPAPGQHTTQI

[7] = molecular target: Cytoplasmic tyrosine-protein kinase BMX (Homo sapiens) (UniProt P51813); assay: Inhibition of BMX (unknown origin) at 1 uM by Ambit Kinomescan binding assay relative to control; values are per cent of control
Chain of Cytoplasmic tyrosine-protein kinase BMX (Homo sapiens) (P51813 whole entry): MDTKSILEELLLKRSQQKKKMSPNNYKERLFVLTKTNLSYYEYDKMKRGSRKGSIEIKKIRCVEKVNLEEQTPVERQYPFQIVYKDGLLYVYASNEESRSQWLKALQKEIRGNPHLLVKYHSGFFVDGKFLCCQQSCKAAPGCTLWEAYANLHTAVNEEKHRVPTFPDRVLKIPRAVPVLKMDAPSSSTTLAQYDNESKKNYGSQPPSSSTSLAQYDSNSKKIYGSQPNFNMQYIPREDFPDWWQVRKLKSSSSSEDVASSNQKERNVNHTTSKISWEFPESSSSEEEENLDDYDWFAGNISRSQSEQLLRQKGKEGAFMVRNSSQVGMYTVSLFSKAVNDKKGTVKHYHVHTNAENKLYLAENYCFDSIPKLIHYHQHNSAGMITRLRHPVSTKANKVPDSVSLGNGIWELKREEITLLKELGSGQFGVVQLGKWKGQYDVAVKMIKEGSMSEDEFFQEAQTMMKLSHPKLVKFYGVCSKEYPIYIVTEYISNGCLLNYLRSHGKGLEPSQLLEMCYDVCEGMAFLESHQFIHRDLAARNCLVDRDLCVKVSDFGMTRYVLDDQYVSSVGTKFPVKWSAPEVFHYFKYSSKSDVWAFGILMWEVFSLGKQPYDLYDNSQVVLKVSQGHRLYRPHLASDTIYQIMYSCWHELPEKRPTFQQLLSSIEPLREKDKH

[8] = molecular target: T3, NUAK family SNF1-like kinase 2 (Homo sapiens) (UniProt Q9H093); assay: Inhibition of NuaK2 Lys1 labeling site in human A-375 cells at 5 uM by KiNativ Profiling analysis relative to control; format: cell-based
T3 sequence (whole entry): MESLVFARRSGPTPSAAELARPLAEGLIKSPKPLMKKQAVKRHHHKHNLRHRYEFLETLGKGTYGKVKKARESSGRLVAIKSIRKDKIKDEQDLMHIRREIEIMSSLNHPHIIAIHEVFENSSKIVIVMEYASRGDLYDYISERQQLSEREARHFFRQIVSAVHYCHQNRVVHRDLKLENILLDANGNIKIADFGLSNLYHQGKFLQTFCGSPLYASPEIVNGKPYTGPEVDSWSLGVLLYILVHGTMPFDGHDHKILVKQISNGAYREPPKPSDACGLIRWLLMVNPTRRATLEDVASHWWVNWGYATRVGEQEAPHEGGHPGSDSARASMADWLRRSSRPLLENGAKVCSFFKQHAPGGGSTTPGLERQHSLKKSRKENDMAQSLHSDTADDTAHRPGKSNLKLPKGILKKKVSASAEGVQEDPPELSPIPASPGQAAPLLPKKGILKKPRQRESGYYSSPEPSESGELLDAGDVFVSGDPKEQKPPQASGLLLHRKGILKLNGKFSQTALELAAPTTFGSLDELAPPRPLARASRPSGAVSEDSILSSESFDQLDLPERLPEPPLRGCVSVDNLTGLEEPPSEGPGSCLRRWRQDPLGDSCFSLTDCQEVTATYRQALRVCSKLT

[9] = molecular target: Serine/threonine-protein kinase SIK3 (Homo sapiens) (UniProt Q9Y2K2); assay: Inhibition of QSK (unknown origin) at 1 uM by Ambit Kinomescan binding assay relative to control
Chain of Serine/threonine-protein kinase SIK3 (Homo sapiens) (Q9Y2K2 whole entry, looked up): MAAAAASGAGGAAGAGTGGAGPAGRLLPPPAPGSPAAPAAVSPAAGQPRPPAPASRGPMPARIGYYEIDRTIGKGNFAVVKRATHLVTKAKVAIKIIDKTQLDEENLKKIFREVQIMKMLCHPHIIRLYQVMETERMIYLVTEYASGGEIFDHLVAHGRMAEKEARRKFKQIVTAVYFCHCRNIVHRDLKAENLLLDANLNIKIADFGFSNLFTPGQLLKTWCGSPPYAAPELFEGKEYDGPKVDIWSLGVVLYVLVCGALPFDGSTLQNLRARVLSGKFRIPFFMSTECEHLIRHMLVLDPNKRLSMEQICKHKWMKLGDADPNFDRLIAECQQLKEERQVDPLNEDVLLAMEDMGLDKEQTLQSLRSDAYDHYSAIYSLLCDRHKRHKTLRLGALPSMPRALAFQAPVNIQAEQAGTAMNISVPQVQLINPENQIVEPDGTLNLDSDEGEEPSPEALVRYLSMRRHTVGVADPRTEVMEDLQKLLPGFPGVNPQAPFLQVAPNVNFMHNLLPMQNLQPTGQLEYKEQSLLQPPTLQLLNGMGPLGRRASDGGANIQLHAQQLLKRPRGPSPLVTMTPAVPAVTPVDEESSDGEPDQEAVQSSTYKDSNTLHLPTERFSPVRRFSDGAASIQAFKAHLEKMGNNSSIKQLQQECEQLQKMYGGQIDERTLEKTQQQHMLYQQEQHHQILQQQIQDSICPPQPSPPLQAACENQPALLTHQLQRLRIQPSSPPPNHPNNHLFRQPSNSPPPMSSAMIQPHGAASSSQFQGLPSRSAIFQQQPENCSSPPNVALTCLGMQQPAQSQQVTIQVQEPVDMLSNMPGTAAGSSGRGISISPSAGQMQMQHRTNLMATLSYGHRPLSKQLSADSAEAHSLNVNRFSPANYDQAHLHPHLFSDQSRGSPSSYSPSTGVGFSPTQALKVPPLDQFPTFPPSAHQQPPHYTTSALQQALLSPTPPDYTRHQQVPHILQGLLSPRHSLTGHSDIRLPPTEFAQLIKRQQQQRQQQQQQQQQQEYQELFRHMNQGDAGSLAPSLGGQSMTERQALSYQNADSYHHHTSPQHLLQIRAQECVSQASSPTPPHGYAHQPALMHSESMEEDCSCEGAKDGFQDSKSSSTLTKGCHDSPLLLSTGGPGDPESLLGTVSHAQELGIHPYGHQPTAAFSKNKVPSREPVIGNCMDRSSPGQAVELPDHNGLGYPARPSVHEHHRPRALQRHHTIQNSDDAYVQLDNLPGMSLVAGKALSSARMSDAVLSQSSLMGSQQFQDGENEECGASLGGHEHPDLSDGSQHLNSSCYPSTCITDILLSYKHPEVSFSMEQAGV

[10] = molecular target: BMP-2-inducible protein kinase (Homo sapiens) (UniProt Q9NSY1); assay: Inhibition of BIKE (unknown origin) at 1 uM by Ambit Kinomescan binding assay relative to control; values are per cent of control
[11] = molecular target: Protein kinase C epsilon type (Homo sapiens) (UniProt Q02156); assay: Inhibition of PRKCE (unknown origin) at 1 uM by Ambit Kinomescan binding assay relative to control; values are per cent of control
Chain of Protein kinase C epsilon type (Homo sapiens) (Q02156 whole entry): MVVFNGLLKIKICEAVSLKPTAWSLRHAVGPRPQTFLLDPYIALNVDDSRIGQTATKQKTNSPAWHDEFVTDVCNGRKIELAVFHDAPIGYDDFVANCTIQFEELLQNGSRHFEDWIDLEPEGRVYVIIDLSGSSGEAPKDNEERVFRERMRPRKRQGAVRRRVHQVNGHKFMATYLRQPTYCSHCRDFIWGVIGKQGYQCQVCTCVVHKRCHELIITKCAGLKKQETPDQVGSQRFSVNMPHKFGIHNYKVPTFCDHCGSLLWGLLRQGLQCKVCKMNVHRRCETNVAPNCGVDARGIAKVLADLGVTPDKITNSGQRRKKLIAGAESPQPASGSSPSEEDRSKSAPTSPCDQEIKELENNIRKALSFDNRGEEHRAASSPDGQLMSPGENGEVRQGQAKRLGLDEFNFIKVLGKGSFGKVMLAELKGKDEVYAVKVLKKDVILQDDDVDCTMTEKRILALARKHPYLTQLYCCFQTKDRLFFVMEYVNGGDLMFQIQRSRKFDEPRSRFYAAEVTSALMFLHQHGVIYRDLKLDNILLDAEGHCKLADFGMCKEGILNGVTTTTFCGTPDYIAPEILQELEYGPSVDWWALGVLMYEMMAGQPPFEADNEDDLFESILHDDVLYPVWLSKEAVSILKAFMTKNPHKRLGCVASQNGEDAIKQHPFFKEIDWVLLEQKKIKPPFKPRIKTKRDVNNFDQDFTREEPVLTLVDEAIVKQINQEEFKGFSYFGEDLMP

CCN1CCN(Cc2ccc(NC(=O)c3ccc(C)c(Oc4ccnc5[nH]ccc45)c3)cc2C(F)(F)F)CC1
inhibition [1]: inactive
inhibition [2]: 40.8%
inhibition [3]: 5.3%
inhibition [4]: 3.5%

CNc1cc(Oc2cc(C(=O)Nc3cc(N4CCN(C)CC4)cc(C(F)(F)F)c3)ccc2C)ncn1
inhibition [5]: -4.1%
inhibition [6]: 33.2%

CCN1CCN(Cc2ccc(NC(=O)c3ccc(C)c(/C=C/c4cnc5[nH]ccc5c4OC)c3)cc2C(F)(F)F)CC1
residual activity [7]: 1.6%
inhibition [8]: -6.1%
inhibition [9]: 100%
residual activity [10]: 25%
residual activity [11]: 62%
